± gives the standard deviation of the averaged measurements.
Tested on: RD-ES
Test: relative viability vs DMSO control (72 h) (fraction); higher = more viable cells
Summary of the method: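 Relative viability was measured with ATPLite and expressed as percent growth, averaged across up to triplicate wells. Sarcoma cell lines had been seeded in 384-well plates to reach 80–90% confluence, dosed after 24 h, and incubated 72 h at 37 °C, 5% CO2. All data were rescaled on a scale where 1 is full and 0 is none.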

SMILES	relative viability (0.00017 µM)	relative viability (0.00051 µM)	relative viability (0.00152 µM)	relative viability (0.00457 µM)	relative viability (0.01372 µM)	relative viability (0.04115 µM)	relative viability (0.1235 µM)	relative viability (0.3704 µM)	relative viability (1.111 µM)	relative viability (3.333 µM)	relative viability (10 µM)
C[C@@H](c1ccc2nccn2c1)n1nnc2ncc(-c3cnn(C)c3)nc21 [Volitinib]	0.975 ± 0.017	1.01 ± 0.019	0.98 ± 0.043	0.998 ± 0.022	1 ± 0.018	1 ± 0.013	1.02 ± 0.017	1.03 ± 0.025	0.989 ± 0.062	0.995 ± 0.064	0.972 ± 0.081
CC(C)(C)c1cc(NC(=O)Nc2ccc(-c3cn4c(n3)sc3cc(OCCN5CCOCC5)ccc34)cc2)no1 [Quizartinib]	0.968 ± 0.018	0.983 ± 0.028	0.993 ± 0.018	0.9932 ± 0.0065	0.993 ± 0.011	0.995 ± 0.005	0.986 ± 0.02	1 ± 0.025	0.991 ± 0.019	0.951 ± 0.043	0.869 ± 0.035
CC(C)N1CCN(Cc2cnc(-c3cc(-c4cccc5[nH]ccc45)cc4[nH]ncc34)o2)CC1 [Nemiralisib]	1 ± 0.036	1 ± 0.016	0.973 ± 0.028	0.978 ± 0.023	0.987 ± 0.03	1.02 ± 0.042	0.9842 ± 0.004	1.01 ± 0.041	0.984 ± 0.036	0.854 ± 0.016	0.223 ± 0.033
C=CC(=O)N1CCC[C@@H](n2nc(-c3ccc(Oc4ccccc4)cc3)c3c(N)ncnc32)C1 [Ibrutinib]	0.985 ± 0.032	0.967 ± 0.043	0.993 ± 0.05	0.97 ± 0.038	0.976 ± 0.04	0.988 ± 0.032	0.957 ± 0.034	0.969 ± 0.015	0.989 ± 0.04	0.957 ± 0.031	0.882 ± 0.013
CN1CCC(COc2cnc(-c3cccc(Cn4nc(-c5cccc(C#N)c5)ccc4=O)c3)nc2)CC1 [Tepotinib]	0.997 ± 0.016	1.01 ± 0.013	1.01 ± 0.014	1 ± 0.013	0.971 ± 0.024	1 ± 0.017	0.99 ± 0.043	0.991 ± 0.035	0.969 ± 0.029	0.953 ± 0.017	0.887 ± 0.025
C[C@@H]1CCN(C(=O)CC#N)C[C@@H]1N(C)c1ncnc2[nH]ccc12 [Tofacitinib]	0.942 ± 0.038	0.962 ± 0.035	0.952 ± 0.053	0.966 ± 0.045	0.961 ± 0.024	0.962 ± 0.06	0.949 ± 0.047	0.965 ± 0.034	0.955 ± 0.045	0.988 ± 0.051	1.02 ± 0.044
Cc1cc(Nc2ncnc3ccc(NC4=NC(C)(C)CO4)cc23)ccc1Oc1ccn2ncnc2c1 [Tucatinib]	0.989 ± 0.03	0.999 ± 0.035	1 ± 0.027	1 ± 0.035	0.95 ± 0.055	0.996 ± 0.027	0.991 ± 0.014	0.974 ± 0.02	0.985 ± 0.037	0.983 ± 0.031	0.9422 ± 0.0042
O=C(Nc1cnn2ccc(N3CCC[C@@H]3c3cc(F)ccc3F)nc12)N1CC[C@H](O)C1 [Larotrectinib]	0.95 ± 0.031	0.963 ± 0.01	0.978 ± 0.05	0.961 ± 0.024	0.9532 ± 0.0046	0.976 ± 0.016	0.961 ± 0.013	0.964 ± 0.014	0.968 ± 0.022	0.931 ± 0.052	0.932 ± 0.042
C=CC(=O)N1CCC([C@@H]2CCNc3c(C(N)=O)c(-c4ccc(Oc5ccccc5)cc4)nn32)CC1 [Zanubrutinib]	0.953 ± 0.033	0.956 ± 0.013	0.978 ± 0.025	0.985 ± 0.025	0.978 ± 0.023	0.943 ± 0.044	0.921 ± 0.027	0.942 ± 0.046	0.887 ± 0.053	0.888 ± 0.07	0.904 ± 0.049
CO[C@H]1C[C@@H]2CC[C@@H](C)[C@@](O)(O2)C(=O)C(=O)N2CCCC[C@H]2C(=O)O[C@H]([C@H](C)C[C@@H]2CC[C@@H](OP(C)(C)=O)[C@H](OC)C2)CC(=O)[C@H](C)/C=C(\C)[C@@H](O)[C@@H](OC)C(=O)[C@H](C)C[C@H](C)/C=C/C=C/C=C/1C [Ridaforolimus]	0.988 ± 0.013	0.978 ± 0.019	0.893 ± 0.039	0.804 ± 0.0091	0.754 ± 0.019	0.71 ± 0.011	0.6822 ± 0.0053	0.674 ± 0.0087	0.693 ± 0.025	0.66 ± 0.026	0.627 ± 0.021
